# Where two headings read alike, the source gives them in different places.
# Test system: DLD-1 BRCA2−/− cells
# Test: Homologous recombination synthetic lethal inhibition of proliferation, DLD-1 BRCA2-/- (Cell Titre Glo 3D)
# Format: cell-based
# Settings: Homo sapiens, taken as DLD-1 BRCA2-/-, read-out: POLQ PD Prolif Lumin (converted)
# In short: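 Cells are seeded in RPMI 1640 (phenol red free, 10% FBS, GlutaMAX) onto pre-dosed compound (10 μM to 0.51 nM, three-fold). Plates are incubated at 37 °C, and medium plus compound are refreshed on day 6. Viability is read by CellTiter-Glo 3D at day 7 (DLD-1) or day 12 (DLD-1 BRCA2−/−), and the IC50 is fitted.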
# [1] = DLD-1, first proliferation column (c5)
# [2] = DLD-1, proliferation, luminescence
SMILES,IC50 [1] [nM],IC50 [2] [nM]
"Cc1ccnc(Cn2c(-c3ccc(N4CCCNCC4)cc3Cl)nc3c(OC4(C)CC4)ncnc32)c1 [Example T384, 8-(2-chloro-4-(1,4-diazepan-1-yl)phenyl)-6-(1-methylcyclopropoxy)-9-((4-methylpyridin-2-yl)methyl)-9H-purine]",398,–
"Cc1cc(OCCCN(C)C)ccc1-c1nc2c(OC3(C)CC3)ncnc2n1Cc1cc(Cl)ccn1 [Example T387, 3-(4-(9-((4-chloropyridin-2-yl)methyl)-6-(1-methylcyclopropoxy)-9H-purin-8-yl)-3-methylphenoxy)-N,N-dimethylpropan-1-amine]",158,–
"Cn1nc(COc2ccc(-c3nc4c(OC5(C)CC5)ncnc4n3Cc3cccc(Cl)c3)c(Cl)c2)cc1C(=O)O [Example T394, 3-((3-chloro-4-(9-(3-chlorobenzyl)-6-(1-methylcyclopropoxy)-9H-purin-8-yl)phenoxy)methyl)-1-methyl-1H-pyrazole-5-carboxylic acid]",–,3160
"Cc1ccnc(Cn2c(-c3ccc(C(=O)N4CCC[C@H]4C#N)cc3Cl)nc3c(OC4(C)CC4)ncnc32)c1 [Example T404, (S)-1-(3-chloro-4-(6-(1-methylcyclopropoxy)-9-((4-methylpyridin-2-yl)methyl)-9H-purin-8-yl)benzoyl)pyrrolidine-2-carbonitrile]",–,1260
"Cc1ccnc(Cn2c(-c3ccc(C(=O)N4CC[C@@H](C#N)C4)cc3Cl)nc3c(OC4(C)CC4)ncnc32)c1 [Example T405, (R)-1-(3-chloro-4-(6-(1-methylcyclopropoxy)-9-((4-methylpyridin-2-yl)methyl)-9H-purin-8-yl)benzoyl)pyrrolidine-3-carbonitrile]",–,1260
"Cc1ccnc(Cn2c(-c3ccc(C(=O)N4C[C@@H]5C[C@H]4CO5)cc3Cl)nc3c(OC4(C)CC4)ncnc32)c1 [Example T416, ((1S,4S)-2-oxa-5-azabicyclo[2.2.1]heptan-5-yl)(3-chloro-4-(6-(1-methylcyclopropoxy)-9-((4-methylpyridin-2-yl)methyl)-9H-purin-8-yl)phenyl)methanone]",–,1580
"Cc1ccnc(Cn2c(-c3ccc(C(=O)N4CCC[C@H](F)C4)cc3Cl)nc3c(OC4(C)CC4)ncnc32)c1 [Example T418, (S)-(3-chloro-4-(6-(1-methylcyclopropoxy)-9-((4-methylpyridin-2-yl)methyl)-9H-purin-8-yl)phenyl)(3-fluoropiperidin-1-yl)methanone]",–,631
"Cc1ccnc(Cn2c(-c3ccc(OCC(=O)N4CC[C@H](F)C4)cc3Cl)nc3c(OC4(C)CC4)ncnc32)c1 [Example T420, (S)-2-(3-chloro-4-(6-(1-methylcyclopropoxy)-9-((4-methylpyridin-2-yl)methyl)-9H-purin-8-yl)phenoxy)-1-(3-fluoropyrrolidin-1-yl)ethan-1-one]",–,251
"Cc1ccnc(Cn2c(-c3ccc(OCC(=O)NC4CC(F)C4)cc3Cl)nc3c(OC4(C)CC4)ncnc32)c1 (stereo not shown) [Example T421, 2-(3-chloro-4-(6-(1-methylcyclopropoxy)-9-((4-methylpyridin-2-yl)methyl)-9H-purin-8-yl)phenoxy)-N-(3-fluorocyclobutyl)acetamide]",–,251
"Cc1ccnc(Cn2c(-c3ccc(OCC(=O)N4C[C@@H](O)[C@H](F)C4)cc3Cl)nc3c(OC4(C)CC4)ncnc32)c1 [Example T423, 2-(3-chloro-4-(6-(1-methylcyclopropoxy)-9-((4-methylpyridin-2-yl)methyl)-9H-purin-8-yl)phenoxy)-1-((3R,4R)-3-fluoro-4-hydroxypyrrolidin-1-yl)ethan-1-one]",–,1000
"Cc1ccnc(Cn2c(-c3ccc(OC4CC5(COC5)C4)cc3Cl)nc3c(OC4(C)CC4)ncnc32)c1 [Example T426, 8-(4-((2-oxaspiro[3.3]heptan-6-yl)oxy)-2-chlorophenyl)-6-(1-methylcyclopropoxy)-9-((4-methylpyridin-2-yl)methyl)-9H-purine]",–,100
"Cc1ccnc(Cn2c(-c3ccc(OCC(=O)N(C)CCC#N)cc3Cl)nc3c(OC4(C)CC4)ncnc32)c1 [Example T430, 2-(3-chloro-4-(6-(1-methylcyclopropoxy)-9-((4-methylpyridin-2-yl)methyl)-9H-purin-8-yl)phenoxy)-N-(2-cyanoethyl)-N-methylacetamide]",–,501
"Cc1ccnc(Cn2c(-c3ccc(OCC(=O)N4CCNC(=O)C4)cc3Cl)nc3c(OC4(C)CC4)ncnc32)c1 [Example T432, 4-(2-(3-chloro-4-(6-(1-methylcyclopropoxy)-9-((4-methylpyridin-2-yl)methyl)-9H-purin-8-yl)phenoxy)acetyl)piperazin-2-one]",–,> 6310
"CC(C)(COc1ccc(-c2nc3c(OC4(C)CC4)ncnc3n2Cc2cccc(Cl)c2)c(Cl)c1)CC(=O)O [Example T436, 4-(3-chloro-4-(9-(3-chlorobenzyl)-6-(1-methylcyclopropoxy)-9H-purin-8-yl)phenoxy)-3,3-dimethylbutanoic acid]",–,200
"CC1(Oc2ncnc3c2nc(-c2cccc(OCCC(C)(C)C(=O)O)c2Cl)n3Cc2cccc(Cl)c2)CC1 [Example T442, 4-(2-chloro-3-(9-(3-chlorobenzyl)-6-(1-methylcyclopropoxy)-9H-purin-8-yl)phenoxy)-2,2-dimethylbutanoic acid]",–,79.4
"Cc1ccnc(Cn2c(-c3ccc(CC(=O)N4CC[C@@H](O)C4)cc3Cl)nc3c(OC4(C)CC4)ncnc32)c1 [Example T458, (R)-2-(3-chloro-4-(6-(1-methylcyclopropoxy)-9-((4-methylpyridin-2-yl)methyl)-9H-purin-8-yl)phenyl)-1-(3-hydroxypyrrolidin-1-yl)ethan-1-one]",–,631
"Cc1ccnc(Cn2c(-c3ccc(C(=O)N4CCC[C@@H]4CO)cc3Cl)nc3c(OC4(C)CC4)ncnc32)c1 [Example T459, (R)-(3-chloro-4-(6-(1-methylcyclopropoxy)-9-((4-methylpyridin-2-yl)methyl)-9H-purin-8-yl)phenyl)(2-(hydroxymethyl)pyrrolidin-1-yl)methanone]",–,1260
"Cc1ccnc(Cn2c(-c3ccc(C(=O)N4CCC[C@H](O)C4)cc3Cl)nc3c(OC4(C)CC4)ncnc32)c1 [Example T461, (S)-(3-chloro-4-(6-(1-methylcyclopropoxy)-9-((4-methylpyridin-2-yl)methyl)-9H-purin-8-yl)phenyl)(3-hydroxypiperidin-1-yl)methanone]",–,1260
"Cc1ccnc(Cn2c(-c3ccc(C(=O)N(C)CC4(O)CC4)cc3Cl)nc3c(OC4(C)CC4)ncnc32)c1 [Example T462, 3-chloro-N-((1-hydroxycyclopropyl)methyl)-N-methyl-4-(6-(1-methylcyclopropoxy)-9-((4-methylpyridin-2-yl)methyl)-9H-purin-8-yl)benzamide]",–,1580
"Cc1ccnc(Cn2c(-c3ccc(C(=O)N4CC[C@@](C)(O)C4)cc3Cl)nc3c(OC4(C)CC4)ncnc32)c1 [Example T463, (R)-(3-chloro-4-(6-(1-methylcyclopropoxy)-9-((4-methylpyridin-2-yl)methyl)-9H-purin-8-yl)phenyl)(3-hydroxy-3-methylpyrrolidin-1-yl)methanone]",–,1580
"Cc1ccnc(Cn2c(-c3ccc(C(=O)N4CC[C@@H](CO)C4)cc3Cl)nc3c(OC4(C)CC4)ncnc32)c1 [Example T464, (R)-(3-chloro-4-(6-(1-methylcyclopropoxy)-9-((4-methylpyridin-2-yl)methyl)-9H-purin-8-yl)phenyl)(3-(hydroxymethyl)pyrrolidin-1-yl)methanone]",–,1580
"CO[C@H]1CCN(C(=O)c2ccc(-c3nc4c(OC5(C)CC5)ncnc4n3Cc3cc(C)ccn3)c(Cl)c2)C1 [Example T465, (S)-(3-chloro-4-(6-(1-methylcyclopropoxy)-9-((4-methylpyridin-2-yl)methyl)-9H-purin-8-yl)phenyl)(3-methoxypyrrolidin-1-yl)methanone]",–,631
"Cc1ccnc(Cn2c(-c3ccc(C(=O)N4CCC[C@H]4CO)cc3Cl)nc3c(OC4(C)CC4)ncnc32)c1 [Example T466, (S)-(3-chloro-4-(6-(1-methylcyclopropoxy)-9-((4-methylpyridin-2-yl)methyl)-9H-purin-8-yl)phenyl)(2-(hydroxymethyl)pyrrolidin-1-yl)methanone]",–,1000
"Cc1ccnc(Cn2c(-c3ccc(OCC(=O)N4CCCC4)cc3Cl)nc3c(OC4(C)CC4)ncnc32)c1 [Example T467, 2-(3-chloro-4-(6-(1-methylcyclopropoxy)-9-((4-methylpyridin-2-yl)methyl)-9H-purin-8-yl)phenoxy)-1-(pyrrolidin-1-yl)ethan-1-one]",–,316
"Cc1ccnc(Cn2c(-c3ccc(OCCN4CCCC4=O)cc3Cl)nc3c(OC4(C)CC4)ncnc32)c1 [Example T469, 1-(2-(3-chloro-4-(6-(1-methylcyclopropoxy)-9-((4-methylpyridin-2-yl)methyl)-9H-purin-8-yl)phenoxy)ethyl)pyrrolidin-2-one]",–,158
"CCC(=O)N1CC(Oc2ccc(-c3nc4c(OC5(C)CC5)ncnc4n3Cc3cc(C)ccn3)c(Cl)c2)C1 [Example T471, 1-(3-(3-chloro-4-(6-(1-methylcyclopropoxy)-9-((4-methylpyridin-2-yl)methyl)-9H-purin-8-yl)phenoxy)azetidin-1-yl)propan-1-one]",–,158
"CC(=O)N1CC[C@@H](Oc2ccc(-c3nc4c(OC5(C)CC5)ncnc4n3Cc3cc(C)ccn3)c(Cl)c2)C1 [Example T472, (R)-1-(3-(3-chloro-4-(6-(1-methylcyclopropoxy)-9-((4-methylpyridin-2-yl)methyl)-9H-purin-8-yl)phenoxy)pyrrolidin-1-yl)ethan-1-one]",–,200
"Cc1ccnc(Cn2c(-c3ccc(OCC(=O)N4CC[C@@H](O)C4)cc3Cl)nc3c(OC4(C)CC4)ncnc32)c1 [Example T473, (R)-2-(3-chloro-4-(6-(1-methylcyclopropoxy)-9-((4-methylpyridin-2-yl)methyl)-9H-purin-8-yl)phenoxy)-1-(3-hydroxypyrrolidin-1-yl)ethan-1-one]",–,1000
